Entries after “also recorded” stand apart in the source; their conditions may differ. Ends that are not written are not given here.

One data set relates to Sprague-Dawley rats. Briefly: In vivo blood pressure measurement in anaesthetized rats. As to the method: Sprague-Dawley (S-D) rats were anaesthetized with pentobarbital and a cannula was inserted into the carotid artery. The rats were kept sedated during the procedure and were injected with PTH peptides only when the blood pressure of the rats were stable. Peptides were injected through a cannula in the jugular vein, in amounts of 1, 3 and 5 or more μg/kg and the mean systolic and diastolic blood pressure was monitored continuously throughout the procedure. Results are reported with comparison to bPTH-(1-34).

In data set [1] the test system is UMR-106 rat osteosarcoma cells. In words: Intracellular free calcium concentration (FURA-2) with KCl stimulation. The data set is classed as cell-based. To be noted: cultured UMR osteoblast cells, in the presence of KCl. The procedure: Because osteoporosis is a progressive syndrome, a model is required and the use of cultured osteoblasts of the UMR-106.rat osteosarcoma cells, ATCC CRL 1661 have been used as the model. Uptake of calcium in these cells has been monitored using the FURA-2 method, wherein a fluorescent dye which is specific for calcium is used as a marker for calcium change into the cells. Cells are incubated with 1-10 μM of the acetomethoxy ester of FURA-2 for 30-60 minutes. Upon uptake, the ester is hydrolyzed to release free FURA-2, which selectively binds free Ca^2+. FURA-2 has a characteristic fluorescence spectrum, which wavelength is shifted when the dye binds to free Ca^2+. According to the method, Ca^2+ which is present in the cell can be quantified by exciting the dye at two different wavelengths, 340 and 380 nm. The emission fluorescence is measured at 510 nm. […] It is conventional to report the concentration of calcium within the cell in terms of the fluorescence ratio, the 340/380 ratio. […]
Intracellular free calcium concentration was measured using the fluorescent dye FURA-2 according to the method of Grynkiewicz et al., J. Biol. Chem., 260, 3440 (1985) and Pang et al., P. N. A. S. (USA), 87, 623 (1990). […] Quantitation is obtained by exciting the dye at two different wavelengths, preferably 340 and 380 nm and measuring the fluorescent emission at 510 nm. […]

In data set [2] the test system is rat tail artery helical strip. In words: In vitro rat tail artery helical strip tension assay. The conditions noted are these: precontracted with AVP, FIG. 20. From the text: We have developed a method for modeling the hypotensive effects of natural and synthetic chemical compounds using helically cut tail arteries from Sprague-Dawley rats in a Sawyer-Bartlestone chamber, measuring the change in tension with a force displacement transducer. This method and the effect of bovine PTH-(1-34) in this system is described in Blood Vessels, 22, 57 (1985). […] FIGS. 12, 16 and 20 illustrate the effect of the PTH analogues of this invention as measured using this in vitro technique. Alternatively, the strips may be precontracted using other pressor substances such as norepinephrine (NE) or KCl.
The assay was performed according to Pang et al., Blood Vessels, 22, 57 (1985). Sprague-Dawley rats were anaesthetized with pentobarbital and the tail artery excised and placed in ice-cold Krebs-Hanseleit solution (KHS) oxygenated with 95% O2, 5% CO2. […] The force generated by the strips was measured with a Grass FT03 force displacement transducer and recorded on a polygraph. […]
One to two minutes prior to addition of a peptide, the strips were contracted by addition of either arginine vasopressin (AVP), potassium chloride (KCl) or norepinephrine (NE) to the bath. The peptide was then added to the bath and the degree of relaxation measured. […] Drug dose is calculated on the basis of the final concentration in the bath solution.

Data set [3] deals with right atrial tissue of Sprague-Dawley rats. Briefly: In vitro atrial contractility and contraction rate measurement. The conditions noted are these: Sprague-Dawley rat right atrium; for effect on contraction rate of right atrial tissue: FIGS. 24-25. From the text: We have also developed a method of modeling the chronotropic effects of natural and synthetic chemicals using the right atrium from Sprague-Dawleyrats and measuring the change in the force and rate of atrium contraction. This method and the effects of bovine PTH (1-34) in this system are described in Tenner et al, The Canadian Journal of Physiology and Pharmacology, Volume 61, No. 10 (1983) pp. 1162-1167. […] FIGS. 24-25 illustrate the effect of the PTH analogues of this invention as measured using this in vitro technique.
The assay was performed according to Tenner et al., Canadian Journal of Physiology and Pharmacology, Vol. 61, No. 10 (1983) pp. 1162-1167. Sprague-Dawley rats weighing between 100 and 250 g were treated with heparin (500 IU, i.p.) 15 minutes prior to decapitation. Thoracotomies were performed and the heart rapidly excised and placed in a cold physiological salt solution (PSS) having the following composition (in millimolar): NaCl, 120; KCl, 5.63; CaCl2, 2.0; MgCl2, 2.1; NAHCO3, 25.0; dextrose, 9.7. The solution was continuously aerated by a gas mixture of 95% O2 -5% CO2. The right atrium was isolated and suspended in a tissue chamber containing 20 mL of PSS at 37° C., pH 7.4. Atria were allowed to equilibrate for 1 hr under a resting tension of 1 g.
The atrial rate and force were determined from contractions recorded by a Grass FT.03 force-displacement transducer and a Grass model 79 polygraph. The Basial atrial rate f or control atria (as determined by counting the frequency of contractions) was 258±7 bpm (n=29). Basal developed force of the spontaneously beating right atria was 0.33±0.06 g (n=10) . Dose-response curves for the peptides were obtained by cumulative addition of the respective peptides. Drug dose is calculated on the basis of the final concentration in the bath solution.

As for “PTH: parathyroid hormone (native PTH); in FIGS. 14 a-d it is bPTH-(1-34) [reference compound]”, the “condition of rats due to blood pressure” value in the data set on Sprague-Dawley rats (5 μg/kg, Sprague-Dawley rats) is given as “essentially moribund”. In data set [1], the “effect on KCl-induced intracellular [Ca2+]i increase” value is “inhibits intracellar [Ca^2+ ]i increases”.

As to “SVSEIQLMHNLGKHLNSMERVEWLAAALQDVHNF [Cs221]”, the “effect on mean arterial blood pressure” value in the data set on Sprague-Dawley rats (anesthetized Sprague-Dawley rats, FIGS. 15, 19) is “least decrease in blood pressure”. Further, the “relaxation of rat tail artery helical strips” value in data set [2] is reported as “least relaxation”. Besides, the “effect on contractility of right atrial tissue” value in data set [3] (FIG. 24) is on record as “minimal effect”. Further, in data set [3], the “effect on contraction rate of right atrial tissue” value is on record as “minimal effect”. The “effect on KCl-induced intracellular [Ca2+]i increase” value in data set [1] was “comparable to the inhibition of intracellular [Ca^2+ ]i increases by hPTH; also recorded: lower intracellular calcium increments”.

B1: Cs2001: human PTH 1-84, no substitution (SEQ ID NO:2) (peptide)
chain: SVSEIQLMHNLGKHLNSMERVEWLRKKLQDVHNFVALGASIAYRDGSSQRPRKKEDNVLVESHQKSLGEADKADVDVLIKAKPQ
As to B1, the “effect on contraction rate of right atrial tissue” value in data set [3] was “increase the contraction rate”.

(Values after patent publication US5317010A, “Parathyroid hormone analogues substituted at AA 25, 26, 27, and use in osteoporosis treatment” (Pang; Peter K. T., priority 1991, dated 1994).)
